Entries after “also recorded” stand apart in the source; their conditions may differ.
How the values were obtained:
[1] = system: IL-6; assay: IL-6 concentration by ELISA after compound treatment; type: cell-based; conditions: 4T1 and E0771 breast cancer cell lines, 1 μM, 24 hours
Protocol: After treatment, IL-6 concentration was decreased by about 5 to 7 fold.
4T1 and E0771 cells were grow in 96 well plate and were treated with compound for 24 hours (concentration of compound was 1 μM). Commercial ELISA kit (R&D systems) was used for measuring of IL-6 concentration. […] After treatment, IL-6 concentration was decreased by about 5 to 7 fold.

[2] = molecular target: T1, G3BP2 (Homo sapiens, UniProt Q9UN86); assay: Pull-down with compound-conjugated TURBOBEADS nanoparticles, Western blot with G3BP2 antibodies; type: binding; conditions: nanoparticles bound to compound vs nanoparticles alone (control)
T1 construct: protein lysates from three breast cancer cell lines incubated overnight with; endogenous in cells
T1 sequence (Q9UN86 1-482): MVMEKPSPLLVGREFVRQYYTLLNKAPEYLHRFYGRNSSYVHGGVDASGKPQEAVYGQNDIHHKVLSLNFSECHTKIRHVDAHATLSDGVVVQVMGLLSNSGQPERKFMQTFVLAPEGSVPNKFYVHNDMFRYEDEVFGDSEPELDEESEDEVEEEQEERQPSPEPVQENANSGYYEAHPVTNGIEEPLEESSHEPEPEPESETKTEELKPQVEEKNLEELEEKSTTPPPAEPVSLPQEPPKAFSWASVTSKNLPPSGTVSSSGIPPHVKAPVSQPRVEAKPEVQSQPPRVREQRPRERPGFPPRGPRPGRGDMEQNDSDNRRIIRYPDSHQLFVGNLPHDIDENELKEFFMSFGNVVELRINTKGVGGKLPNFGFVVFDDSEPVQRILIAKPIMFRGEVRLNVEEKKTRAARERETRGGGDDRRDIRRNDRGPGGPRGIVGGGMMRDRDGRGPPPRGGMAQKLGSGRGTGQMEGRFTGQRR
Protocol: Western blot analysis was performed with G3BP2 antibodies. Small molecule 2-hydroxy-N′-[1-(2-hydroxyphenyl)ethylidene]benzohydrazide was conjugated to TURBOBEADS® carboxy nanoparticles (TURBOBEADS®). TURBOBEADS® alone were used as a negative control.
To determine which […] would bind to a test compound, TURBOBEADS® carboxy nanoparticles (TURBOBEADS®) were conjugated to 2-hydroxy-N′-[1-(2-hydroxyphenyl)ethylidene]benzohydrazide for 20 mi as per manufacturer's protocol, followed by overnight immunoprecipitation at 4° C. Proteins from metastatic cancer cells were pulled-down with using the test compound-nanoparticle conjugates and using unconjugated nanoparticles as a control.
shRNA-expressing lentivirus was obtained for each pull-down protein and used to infect modified MDA-MB-231 cells. MTT assays were performed with shRNA stable cell lines and treated with non-lethal doses of paclitaxel. Only shRNA […] made cells sensitive to treatment with paclitaxel. To confirm that the test compound (2-hydroxy-N′-[1-(2-hydroxyphenyl)ethylidene]benzohydrazide) bound to G3B3P2, an immunoprecipitation with magnetic nanoparticles bound to 2-hydroxy-N′-[1-(2-hydroxyphenyl)ethylidene]benzohydrazide and nanoparticles alone (control) was carried out.

[3] = system: PD-L1; assay: PD-L1 protein level by Western blot in cells under compressive (solid) stress; type: cell-based; conditions: breast cancer (4T1) and glioblastoma cells (CT2A, GL261), solid stress 0.80 kPa, 1 μM, 24 hours
Protocol: Cells were treated with 1 μM C108 for 24 hours and untreated cells were used as a control. β-actin was used as a loading control.
To generate compressive stress, a device was used that included a piston of adjustable weights applying a constant force to cells growing on a transwell membrane with 0.8 μm-pores. This membrane permitted nutrient and oxygen diffusion but prevented cell transmigration. The connection between compressive stress and G3BP2 and PD-L1 protein levels was measured in 4T1 cells. When 80% cell confluence was reached on the membrane, the cells were compressed for 24 h using the in vitro compression device; a similar membrane containing 80% cell confluence in an uncompressed condition was used as the control. After 24-h compression, proteins were isolated from the control and compressed cells cultured in full-growth medium according to the standard protocol (see e.g., Roose et al. Microvasc Res, 2003, 66(3):204-12). […] To confirm this finding, Western blot analysis was performed with different breast cancer cells (MDA-MB-231 cells) with different of compressive stress, as shown in FIG. 15B).
It was then hypothesized that compounds that bind to G3BP2 protein can repress PD-L1 in stressed cells. Breast cancer cells and glioblastoma cells in vitro were analyzed with 2-hydroxy-N′-[1-(2-hydroxyphenyl)ethylidene]benzohydrazide (i.e., C108) for 24 hours.

[4] = system: ZEB1; assay: ZEB1 protein level by Western blot after compound treatment; type: cell-based; conditions: MDA-MB-453 and BT-474 breast cancer cell lines, 3 μM, 24 hours
Protocol: Immunoprecipitation was performed using Protein A Sepharose beads (GE Healthcare Lifesciences). Beads were washed, conjugated to the immunoprecipitating antibody for 2 hours, and immunoprecipitated overnight at 4° C. Western blots were performed using a standard protocol; using 4-10% gradient gel and Tris-glycine transfer buffer.
A direct molecular link between epithelial-mesenchymal transition (EMT) and CSC plasticity in breast cancer has recently been shown; EMT effectors such as ZEB1 can co-induce both EMT and stem-like properties (see e.g., Chaffer et al., Cell, 2013, 154, 61-74). To understand if the G3BP2-mediated CSC state intersects with the EMT program, we the protein level of ZEB1 in G3BP2 knockdown and overexpression breast cancer cell lines was analyzed.

Binding of G3BP2 to the compound (Western blotting after immunoprecipitation with magnetic nanoparticles) [2]: binds
SMILES: CC(=NNC(=O)c1ccccc1O)c1ccccc1O [C108, 2-hydroxy-N′-[1-(2-hydroxyphenyl)ethylidene]benzohydrazide]
Decrease in IL-6 concentration [1]: 5 to 7 fold | PD-L1 expression level [3]: repressed; also recorded: diminished | ZEB1 inhibition [4]: 5-7 fold

Reference: US11427543B2, “Compounds for targeting cancer stem cells” (The General Hospital Corporation, priority 2016, dated 2022)
